Data on one compound can be found in patent US7964556B1, “Antimicrobial peptides and use thereof” (Toagosei Co., Ltd, priority 2004, dated 2011).

Common to all, as to format: cell-based
The subject of data set [1] is Staphylococcus aureus. As for the experimental part: (§1) Regarding the antimicrobial peptide in samples 1 to 14 and the comparative sample 1, the antimicrobial activities (minimum inhibitory concentration: MIC) with respect to gram-negative bacteria (Escherichia coli) and gram-positive bacteria (Staphylococcus aureus) were determined, as described below, by a liquid medium dilution technique using a 96-well microplate. First, a drug (synthesized peptide) solution having a concentration of 40 times of the highest test concentration was prepared using sterile distilled water, and thereafter liquid-bouillon mediums (“NUTRIENT BROTH Dehydrated” manufactured by DIFCO) having peptide concentrations of 200, 100, 50, 25, 12.5, 6.25, 3.13, 1.56 and 0.78 μM were produced respectively. The produced liquid-bouillon mediums including the peptide of each concentration were then fed to the 96-well microplate at 100 μL a time.
(§2) At the same time, test bacteria cultured for 18 hours at 37° C. on an agar plate (“Muller Hinton Agar” manufactured by DIFCO) were gathered by scratching with a loop, and then suspended in a sterilized physiological saline. Bacterial suspension 5 μL prepared at an equivalent of 2×10^7 cells/mL was respectively inoculated (number of bacteria to be tested: approximately 1×10^6 cells/mL) onto the above-described liquid-bouillon mediums including the peptide of each concentration and fed to each well of the above-described microplate. After inoculation, the microplate was then incubated in an incubator at 37° C., and the presence of bacteria was evaluated based on the turbidity 24 hours later. The minimum drug concentration (peptide concentration), in which an increased in turbidity caused by bacteria was not detected at the time of measurement, was defined as MIC (minimum inhibitory concentration) (unit: μM) in the present embodiment.

Data set [2] concerns Escherichia coli. As to conditions: 24 h. How it is done: as §1, §2
Data set [3] relates to sheep's erythrocytes. How it is done:
A test on the hemolytic activity of 2 kinds of synthesized peptides (sample 9 and sample 10) in example 1 was performed and served as indicator of the effects of these peptides on animal cell (erythrocyte). The hemolytic activity test in the present example was performed as follows. Specifically, sample peptides were dissolved in PBS (pH7.4), and thereafter 10 stages of twice diluted strains (sample solutions) with peptide concentration of 400, 200, 100, 50, 25, 12.5, 6.25, 3.13, 1.56 and 0.78 μM were prepared. Here, PBS was used as a control of 0% hemolysis, and PBS containing 0.1% of triton X-100 was used as a control of 100% hemolysis. Erythrocyte of fiber-free sheep's blood was then added to these sample solutions such that the volume ratio (v/v) was 1% of these sample solutions. After adding the above-described red blood cells, the sample solutions were incubated for 1 hour at 37° C., and thereafter the hemolysis was ceased with cold water. Next, centrifugal separation at 3000 rpm was performed for […] at 4° C.
After centrifugal separation, each supernatant was fed to the 96-well microplate, and absorbency under 540 nm wavelength was determined. The hemolytic rate (%) was then calculated by the following formula based on the results determined: {(Aexp−A0)/A100}×100. […]

Data set [4] deals with S. aureus. As for the experimental part: Next, the antimicrobial activities (MIC) against gram-positive bacteria (S. aureus) in the presence of serum and high concentration of cation were tested with the same method as Example 2. However, only the above-described sample 9 was used as the test peptide. Specifically, a drug (synthesized peptide of sample 9) solution having a concentration of 40 times of the highest test concentration was prepared using sterile distilled water. Thereafter, MHB mediums (“Mueller Hinton Broth” manufactured by DIFCO) including high concentration of cation with peptide concentrations of 50, 25, 12.5, 6.25, 3.13, 1.56 and 0.78 μM were produced respectively. The cation included was prepared as follows: dissolving 3.68 g of CaCl2.2H2O in 100 mL of purified water (10 mg.Ca^2+/mL), and thereafter adding 500 μL thereof into 100 mL of Mueller Hinton Broth; and dissolving 8.36 g of MgCl2.6H2O in 100 mL of purified water (10 mg.Mg^2+/mL), and thereafter adding 250 μL thereof into 100 mL of Mueller Hinton Broth.
Mediums (hereinafter “MHB serum mediums including high concentration of cation”) were further prepared by adding horse serum (mechanically sterilized Nippon Biotest Laboratories inc. product), which made up of 10% volume ratio of the entire medium, into the MHB mediums including high concentration of cation. The MHB serum mediums including high concentration of cation had peptide concentrations of 50, 25, 12.5, 6.25, 3.13, 1.56 and 0.78 μM.
Next, the above-described MHB mediums including high concentration of cation and having peptide of each concentration, and the above-described MHB serum mediums including high concentration of cation and having peptide of each concentration were fed to the 96-well microplate at 100 μL a time, and the MIC were determined using the same method as example 2. As comparison, commercially available MHB mediums having peptide concentration of 50, 25, 12.5, 6.25, 3.13, 1.56 and 0.78 μM were used.

Where a SMILES comes first, the peptide text is derived from it.

With `CC[C@H](C)[C@H](NC(=O)[C@H](CCC(N)=O)NC(=O)[C@@H](NC(=O)[C@H](CCCCN)NC(=O)[C@@H](NC(=O)[C@H](CCCCN)NC(=O)[C@H](CCCNC(=N)N)NC(=O)[C@H](CCCCN)NC(=O)[C@H](CCCCN)NC(=O)[C@H](CCCCN)NC(=O)[C@@H](N)CCCNC(=N)N)C(C)C)C(C)C)C(=O)N[C@H](C(=O)N[C@@H](CC(N)=O)C(=O)N[C@@H](CCCCN)C(=O)N[C@@H](CCCCN)C(N)=O)[C@@H](C)CC` [Sample 9, RKKKRKVKVQIINKK] (H-RKKKRKVKVQIINKK-NH2), the “Antimicrobial Activities (MIC) S. aureus” value in data set [1] (24 h) amounted to 0.78 µM. For the same compound, the “antimicrobial activities against gram-positive bacteria (S. aureus), in words” value in data set [1] (summary of Table 2) is “particularly high antimicrobial activities”. In data set [2], the “Antimicrobial Activities (MIC) E. coli” value was 3.13 µM. Further, in data set [3], the “hemolytic activities, in words” value is recorded as “significantly low”. Besides, in data set [4], the “Antimicrobial Activities (MIC) against S. aureus, MHB” value is 3.13 µM; the “Antimicrobial Activities (MIC) against S. aureus, MHB + Cation” value turned out to be 3.13 µM; the “Antimicrobial Activities (MIC) against S. aureus, MHB + Cation + Horse Serum” value came to 3.13 µM.
